The source of these data is patent EP4772513A1, “PI3K-ALPHA INHIBITOR AND USE THEREOF” (TYK Medicines (Zhengzhou), Inc., priority 2023, dated 2025).

The subject of test [1] is Human breast cancer cells SK-BR-3 (WT). Briefly: Cell proliferation inhibition assay (CTG), SK-BR-3 (WT). To be noted: Homo sapiens, 72 h, SK-BR-3 (WT) cells, 3 days incubation, CTG readout. The test is classed as cell-based. The protocol:
(§1) Cell Proliferation Inhibition Assay
(§2) 1. Experimental Materials
(§3) II. Experimental Protocol
(§4) • a) Cell suspension was prepared; • b) The medium was removed from the culture flask; • c) The cells were rinsed once with PBS; • d) Trypsin was added for digestion, and the cells were centrifuged and collected; • e) The cells were resuspended in medium, counted and adjusted to an appropriate concentration; • f) 100 µL of cell suspension was added to each well of a 96-well plate. One plate was used for each cell line, which was incubated overnight in a 37 °C, 5% CO2 incubator.
(§5) 2. Treatment of Compounds
(§6) • a) Serial dilutions of the test compounds were prepared: The compound was prepared as a 10 mM stock solution. 18 µL of the stock solution was dissolved in 982 µL of the culture medium containing DMSO, followed by 4-fold serial dilutions in culture medium containing 0.5% DMSO to give 9 concentrations. The concentrations of the diluted compound were as follows: 180000 nM, 45000 nM, 11250 nM, 2812.5 nM, 703.13 nM, 175.78 nM, 43.95 nM, 10.99 nM, and 2.75 nM. • b) After thorough mixing, 20 µL of each compound solution was added to the cell plate containing 100 µL of cells per well. Each concentration was tested in triplicate. Final concentrations of the compound were as follows: 30000 nM, 7500 nM, 1875 nM, 468.75 nM, 117.188 nM, 29.30 nM, 7.32 nM, 1.83 nM, and 0.46 nM. • c) The cells were transferred into the incubator and incubated for 3 days.
(§7) The cell plate was removed, 25 µL of CTG reagent was added to each well of the 96-well plate, the mixture was shook on a plate shaker at room temperature for 10 minutes, and the plate was read.
(§8) The cell survival rate was calculated using the following formula (% Cell Survival): % Cell Survival = 100% × (OD_Sample−OD_LCave)/(OD_HC−OD_LCave) [formula] • OD_HC: Reading of the 0.1‰ DMSO control group • OD_Sample: Reading of cells treated with compound • OD_LCave: Reading of blank medium
(§9) Analyzed by Prism: Dose-response-Inhibition - Log (inhibitor) vs response (three parameters for the best fit).

In test [2] the test system is Human breast cancer cells T47D (H1047R). Briefly: Cell proliferation inhibition assay (CTG), T47D (H1047R). Format: cell-based. Conditions: Homo sapiens, 72 h, 3 days incubation, CTG readout. The protocol: as §1, §2, §3, §4, §5, §6, §7, §8, §9

With `C[C@@H]1CN(S(=O)(=O)N2CCc3c(oc4c([C@@H](C)Nc5ccccc5C(=O)O)cc(F)cc4c3=O)C2)C[C@@H](C)O1` [Compound C155], the IC50 (as a rule, the concentration at which inhibition is half-maximal) in test [1] is > 5000 nM; in test [2], ≤ 500 nM.
As for `Cc1cc([C@@H](C)Nc2ccccc2C(=O)O)c2oc3c(c(=O)c2c1)CCN(S(=O)(=O)c1c(C)nnn1C)C3` [Compound C156], the results for the IC50 in test [1] and in test [2] were > 5000 nM and ≤ 500 nM, respectively.
On to `Cc1nnn(C)c1S(=O)(=O)N1CCc2c(oc3c([C@@H](C)Nc4ccccc4C(=O)O)cc(F)cc3c2=O)C1` [Compound C157], for which the figures for the IC50 in test [1] and in test [2] were > 5000 nM and 500 to 2000 nM, respectively.
For the molecule `Cc1cc([C@@H](C)Nc2ccccc2C(=O)O)c2oc3c(c(=O)c2c1)CCN(S(=O)(=O)c1c(C)cnn1C)C3` [Compound C158], the IC50 in test [1] is > 5000 nM; in test [2] it was ≤ 500 nM.
`Cc1cnn(C)c1S(=O)(=O)N1CCc2c(oc3c([C@@H](C)Nc4ccccc4C(=O)O)cc(F)cc3c2=O)C1` [Compound C159]: the figures for the IC50 in test [1] and in test [2] were > 5000 nM and ≤ 500 nM, respectively.
Taken in the same sequence, the figures for `Cc1nsc(C)c1S(=O)(=O)N1CCc2c(oc3c([C@@H](C)Nc4ccccc4C(=O)O)cc(F)cc3c2=O)C1` [Compound C160] were > 5000 nM and ≤ 500 nM.
Taken in the same sequence, the figures for `Cc1cc([C@@H](C)Nc2ccccc2C(=O)O)c2oc3c(c(=O)c2c1)CCN(S(=O)(=O)c1ccccc1F)C3` [Compound C162] were > 5000 nM and ≤ 500 nM.
Take `CCOC(=O)c1ccccc1N[C@H](C)c1cc(C)cc2c(=O)c3c(oc12)CN(S(=O)(=O)N1CCOCC1)CC3` [Compound C165]: the IC50 in test [1] is > 5000 nM; in test [2] it was 500 to 2000 nM.
Taken in the same sequence, the figures for `Cc1cc([C@@H](C)Nc2ccccc2C(=O)O)c2oc3c(c(=O)c2c1)CCN(S(C)(=O)=O)C3` [Compound C168] were > 5000 nM and 500 to 2000 nM.
Taken in the same sequence, the figures for `Cc1cc([C@@H](C)Nc2ccccc2C(=O)O)c2oc3c(c(=O)c2c1)CCN(C(C)C)C3` [Compound C171] were > 5000 nM and 500 to 2000 nM.
As for `Cc1cc([C@@H](C)Nc2ccccc2C(=O)O)c2oc3c(c(=O)c2c1)CCN(c1ccccn1)C3` [Compound C172], the IC50 in test [1] is > 5000 nM; in test [2], ≤ 500 nM.
Consider `Cc1cc([C@@H](C)Nc2ccccc2C(=O)O)c2oc3c(c(=O)c2c1)CCN(C1CC2CCC1C2)C3` (stereo partly shown) [Compound C173], for which the values for the IC50 in test [1] and in test [2] were > 5000 nM and 500 to 2000 nM, respectively.
The like results for `Cc1cc([C@@H](C)Nc2ccccc2C(=O)O)c2oc3c(c(=O)c2c1)CCN(c1ncccn1)C3` [Compound C175] were, in that order, > 5000 nM and ≤ 500 nM.
As for `Cc1cc([C@@H](C)Nc2ccccc2C(=O)O)c2oc3c(c(=O)c2c1)CCN(Cc1ccccc1)C3` [Compound C176], the IC50 was > 5000 nM in test [1] and ≤ 500 nM in test [2].
Turning to `[2H]C([2H])([2H])n1ncc(C)c1S(=O)(=O)N1CCc2c(oc3c([C@@H](C)Nc4ccccc4C(=O)O)cc(C)cc3c2=O)C1` [Compound C177], the IC50 was > 5000 nM in test [1] and ≤ 500 nM in test [2].
On to `CC[C@H](C)N1CCc2c(oc3c([C@@H](C)Nc4ccccc4C(=O)O)cc(C)cc3c2=O)C1` [Compound C178], for which the results for the IC50 in test [1] and in test [2] were > 5000 nM and ≤ 500 nM, respectively.
Taken in the same sequence, the figures for `CC[C@@H](C)N1CCc2c(oc3c([C@@H](C)Nc4ccccc4C(=O)O)cc(C)cc3c2=O)C1` [Compound C179] were > 5000 nM and ≤ 500 nM.
Taken in the same sequence, the figures for `Cc1cc([C@@H](C)Nc2ccccc2C(=O)O)c2oc3c(c(=O)c2c1)CCN(c1ccccc1)C3` [Compound C180] were > 5000 nM and ≤ 500 nM.
On to `Cc1cc([C@@H](C)Nc2ccccc2C(=O)O)c2oc3c(c(=O)c2c1)CCN(S(=O)(=O)Cc1ccccc1)C3` [Compound C181], for which the IC50 in test [1] is > 5000 nM; in test [2], ≤ 500 nM.
The like results for `Cc1cnn(C)c1S(=O)(=O)N1CCc2c(nc3c([C@@H](C)Nc4ccccc4C(=O)O)cc(F)cn3c2=O)C1` [Compound C182] were, in that order, > 5000 nM and ≤ 500 nM.
In the case of `Cc1cc([C@@H](C)Nc2ccccc2C(=O)O)c2nc3c(c(=O)n2c1)CCN(S(=O)(=O)c1c(C)cnn1C)C3` [Compound C189], the figures for the IC50 in test [1] and in test [2] were > 5000 nM and ≤ 500 nM, respectively.
For `C[C@@H](Nc1ccccc1C(=O)O)c1cc(F)cn2c(=O)c3c(nc12)CN(Cc1ccccc1)CC3` [Compound C190], the IC50 in test [1] was > 5000 nM; in test [2] it was 500 to 2000 nM.
The like results for `Cc1cc([C@@H](C)Nc2ccccc2C(=O)O)c2nc3c(c(=O)n2c1)CCN(S(=O)(=O)c1ccccc1)C3` [Compound C191] were, in that order, > 5000 nM and ≤ 500 nM.
For `C[C@@H](Nc1ccccc1C(=O)O)c1cc(F)cn2c(=O)c3c(nc12)CN(S(=O)(=O)c1ccccc1)CC3` [Compound C192], the IC50 was > 5000 nM in test [1] and ≤ 500 nM in test [2].
The like results for `CC(C)S(=O)(=O)N1CCc2c(nc3c([C@@H](C)Nc4ccccc4C(=O)O)cc(F)cn3c2=O)C1` [Compound C193] were, in that order, > 5000 nM and ≤ 500 nM.
Taken in the same sequence, the figures for `C[C@@H](Nc1ccccc1C(=O)O)c1cc(F)cn2c(=O)c3c(nc12)CN(c1ccccc1)CC3` [Compound C208] were > 5000 nM and 500 to 2000 nM.
